Test results as given in article PMC6990646 (ACS Omega, 2020).
≈ marks a conversion by molar mass, not a printed value. Where “and” joins values, the source holds several entries; their conditions need not be identical. Equal values may be shown once.

Legend:
HAdV7 = experiment: Plaque reduction assay against adenovirus 7; assay type: cell-based, human adenovirus type 7; conditions: nontoxic dose of compound
[1] = tested on: ED-43/SG-Feo (VYG) replicon of HCV genotype 4a; experiment: Antiviral bioassay against ED-43/SG-Feo; assay type: cell-based; conditions: nontoxic dose of compound
HSV-1 = conditions: for mean % of reduction, herpes simplex virus: nontoxic dose of compound; for IC50: herpes simplex virus, plaque reduction
FRHK-4 cell line = experiment: Cytotoxicity test on FRHK-4 cell line; assay type: cell-based; conditions: hepatitis A virus HM 175 columns; host cells FRHK4
HAV HM175 = experiment: Plaque reduction assay against HAV HM175; assay type: cell-based, hepatitis A virus HM 175; conditions: for IC50: hepatitis A virus HM 175, plaque reduction; for mean % of reduction, hepatitis A virus HM 175: nontoxic dose of compound
Vero cell line = experiment: Cytotoxicity test on Vero cell line; assay type: cell-based; conditions: herpes simplex virus table; host cells Vero
CBV4 = experiment: Plaque reduction assay against coxsackievirus B4; assay type: cell-based; conditions: nontoxic dose of compound

SMILES | mean % of reduction, adenovirus type 7 (HAdV7) | mean % of reduction, HCVcc genotype 4 [1] | mean % of reduction, herpes simplex virus (HSV-1) | CC50 (FRHK-4 cell line) | IC50 (HAV HM175) | CC50 (Vero cell line) | IC50 (HSV-1) | mean % of reduction, hepatitis A virus HM 175 (HAV HM175) | mean % of reduction, coxsackievirus B4 (CBV4)
Nc1nc(NS(=O)(=O)c2ccccc2)nc(-c2ccc(Cl)cc2)c1-c1nc2ccccc2s1 [14c, N-(4-Amino-5-(benzo[d]thiazol-2-yl)-6-(4-chlorophenyl)pyrimidin-2-yl)benzenesulfonamide] | 30 ± 0.6% | 30 ± 0.7% | 30 ± 0.8% | 230 µg/mL (≈ 466 µM) | – | – | – | – | –
Cc1ccc(S(=O)(=O)Nc2nc(N)c(-c3nc4ccccc4s3)c(-c3ccc(Cl)cc3)n2)cc1 [14h, N-(4-Amino-5-(benzo[d]thiazol-2-yl)-6-(4-chlorophenyl)pyrimidin-2-yl)-4-methylbenzenesulfonamide] | 40 ± 0.7% | 20 ± 0.5% | 70% and 70 ± 2.0% | 200 µg/mL (≈ 394 µM) | 74 µg/mL (≈ 146 µM) | 230 µg/mL (≈ 453 µM) | 71 µg/mL (≈ 140 µM) | – | –
Cc1ccc(S(=O)(=O)Nc2ncc(-c3nc4ccccc4s3)c(N)n2)cc1 [5b, N-(4-Amino-5-(benzo[d]thiazol-2-yl)pyrimidin-2-yl)-4-methylbenzenesulfonamide] | 20 ± 0.3% | 20 ± 0.8% | 40 ± 1.4% | – | – | – | – | 40 ± 1.0% | –
Cc1ccc(-c2nc(N)nc(N)c2-c2nc3ccccc3s2)cc1 [13b, 5-(Benzo[d]thiazol-2-yl)-6-p-tolylpyrimidine-2,4-diamine] | 10 ± 0.1% | 10 ± 0.2% | 10 ± 0.1% | – | – | – | – | 10 ± 0.1% | 10 ± 0.1%
CSc1nc(NS(=O)(=O)c2ccccc2)nc(N)c1-c1nc2ccccc2s1 [17a, N-(4-Amino-5-(benzo[d]thiazol-2-yl)-6-(methylthio)pyrimidin-2-yl)benzenesulfonamide] | 10 ± 0.2% | 10 ± 0.1% | 10 ± 0.3% | – | – | – | – | 10 ± 0.2% | 10 ± 0.1%
Cc1ccc(S(=O)(=O)Nc2nc(N)c(-c3nc4ccccc4s3)c(-c3ccc(F)cc3)n2)cc1 [14g, N-(4-Amino-5-(benzo[d]thiazol-2-yl)-6-(4-fluorophenyl)pyrimidin-2-yl)-4-methylbenzenesulfonamide] | 40 ± 0.8% | 20 ± 0.7% | 80% and 80 ± 2.4% | 230 µg/mL (≈ 468 µM) | 81 µg/mL (≈ 165 µM) | 240 µg/mL (≈ 488 µM) | 50 µg/mL (≈ 102 µM) | – | –
COc1ccc(-c2nc(NS(=O)(=O)c3ccc(C)cc3)nc(N)c2-c2nc3ccccc3s2)cc1 [14j, N-(4-Amino-5-(benzo[d]thiazol-2-yl)-6-(4-methoxyphenyl)pyrimidin-2-yl)-4-methylbenzenesulfonamide] | 10 ± 0.1% | 10 ± 0.3% | 10 ± 0.1% | – | – | – | – | 10 ± 0.1% | 10 ± 0.1%
CC(=O)CNc1nc(NS(=O)(=O)c2ccccc2)ncc1-c1nc2ccccc2s1 [compound 7, N-(5-(Benzo[d]thiazol-2-yl)-4-((2-oxopropyl)amino)pyrimidin-2-yl)benzenesulfonamide] | 10 ± 0.2% | 10 ± 0.3% | 10 ± 0.5% | – | – | – | – | 10 ± 0.2% | 13.3 ± 0.4%
Nc1nc2c(ncn2COCCO)c(=O)[nH]1 [acyclovir, Acyclovir, reference compound] | – | – | – | – | – | 28 µg/mL (≈ 124 µM) | – | – | –
CSc1nc(NS(=O)(=O)c2ccc(C)cc2)nc(N)c1-c1nc2ccccc2s1 [17b, N-(4-Amino-5-(benzo[d]thiazol-2-yl)-6-(methylthio)pyrimidin-2-yl)-4-methylbenzenesulfonamide] | 10 ± 0.1% | 10 ± 0.1% | 10 ± 0.2% | – | – | – | – | 10 ± 0.1% | 20 ± 0.2%
Cc1ccc(C(=O)CNc2nc(NS(=O)(=O)c3ccccc3)ncc2-c2nc3ccccc3s2)cc1 [9c, N-(5-(Benzo[d]thiazol-2-yl)-4-((2-(p-tolyl)-2-oxoethyl)amino)pyrimidin-2-yl)benzenesulfonamide] | 10 ± 0.2% | 10 ± 0.6% | 30 ± 1.0% | – | – | – | – | 40 ± 1.2% | –
COc1ccc(-c2nc(NS(=O)(=O)c3ccccc3)nc(N)c2-c2nc3ccccc3s2)cc1 [14e, N-(4-Amino-5-(benzo[d]thiazol-2-yl)-6-(4-methoxyphenyl)pyrimidin-2-yl)benzenesulfonamide] | 10 ± 0.1% | 10 ± 0.3% | 16.7 ± 0.1% | – | – | – | – | 13.3 ± 0.2% | 20 ± 0.2%
Nc1nc(NS(=O)(=O)c2ccccc2)ncc1-c1nc2ccccc2s1 [5a, N-(4-Amino-5-(Benzo[d]thiazol-2-yl)pyrimidin-2-yl)benzenesulfonamide] | 20 ± 0.5% | 30 ± 0.8% | 20 ± 0.9% | 220 µg/mL (≈ 574 µM) | 100 µg/mL (≈ 261 µM) | – | – | – | –
Cc1ccc(S(=O)(=O)Nc2nc(N)c(-c3nc4ccccc4s3)c(-c3ccccc3)n2)cc1 [14f, N-(4-Amino-5-(benzo[d]thiazol-2-yl)-6-phenylpyrimidin-2-yl)-4-methylbenzenesulfonamide] | 10 ± 0.2% | 10 ± 0.1% | 10 ± 0.1% | – | – | – | – | 10 ± 0.1% | 10 ± 0.2%
Nc1nc(NS(=O)(=O)c2ccccc2)nc(-c2ccccc2)c1-c1nc2ccccc2s1 [14a, N-(4-Amino-5-(benzo[d]thiazol-2-yl)-6-phenylpyrimidin-2-yl)benzenesulfonamide] | 10 ± 0.2% | 10 ± 0.1% | 10 ± 0.2% | – | – | – | – | 10 ± 0.1% | 10 ± 0.1%
Cc1ccc(-c2nc(NS(=O)(=O)c3ccccc3)nc(N)c2-c2nc3ccccc3s2)cc1 [14d, N-(4-Amino-5-(benzo[d]thiazol-2-yl)-6-p-tolylpyrimidin-2-yl)benzenesulfonamide] | 10 ± 0.1% | 10 ± 0.1% | 10 ± 0.1% | – | – | – | – | 20 ± 0.2% | 30 ± 0.2%
Nc1nc(NS(=O)(=O)c2ccccc2)nc(-c2ccc(F)cc2)c1-c1nc2ccccc2s1 [14b, N-(4-Amino-5-(benzo[d]thiazol-2-yl)-6-(4-fluorophenyl)pyrimidin-2-yl)benzenesulfonamide] | 30 ± 0.5% | 10 ± 0.6% | 70 ± 1.3% | 220 µg/mL (≈ 461 µM) | – | 250 µg/mL (≈ 524 µM) | 66 µg/mL (≈ 138 µM) | – | –
Cc1ccc(-c2nc(NS(=O)(=O)c3ccc(C)cc3)nc(N)c2-c2nc3ccccc3s2)cc1 [14i, N-(4-Amino-5-(benzo[d]thiazol-2-yl)-6-p-tolylpyrimidin-2-yl)-4-methylbenzenesulfonamide] | 10 ± 0.1% | 10 ± 0.2% | 10 ± 0.1% | – | – | – | – | 10 ± 0.2% | 10 ± 0.1%
COc1ccc(-c2nc(N)nc(N)c2-c2nc3ccccc3s2)cc1 [13c, 5-(Benzo[d]thiazol-2-yl)-6-(4-methoxyphenyl)pyrimidine-2,4-diamine] | 10 ± 0.2% | 10 ± 0.1% | 10 ± 0.3% | – | – | – | – | 10 ± 0.1% | 10 ± 0.2%
